Key:
[1] = test system: Mice (C57/B6J) fed with high-fat food
Excerpt: Mice (C57/B6J, 8 weeks old male) were divided into 4 groups (5 animals each), and the first group (DB) was freely fed with ordinary food (Certified Diet “MF” manufactured by Oriental Yeast Co., ltd.). The second group (HFD) was freely fed with high-fat food (High Fat Diet 32, manufactured by CLEA Japan, Inc.), […].
When the mouse was 20 weeks old, the body weight, the liver weight, the serum aspartate aminotransferase (AST), the alanine aminotransferase (ALT), the serum triglyceride (TG), the free fatty acid value (FFA) and the total cholesterol value (T-cho) were measured.

[2] = test system: subjects who had NAFLD in 31 IU/L or more of ALT
[3] = HFD6 and HFD60 groups in comparison to the HFD group, 20 weeks old
[4] = high-fat food mice, glutathione 6 or 60 mg/kg/day in water, 20 weeks old

## N[C@@H](CCC(=O)N[C@@H](CS)C(=O)NCC(=O)O)C(=O)O [glutathione]
[1]; [3]
  FFA (free fatty acid value): significant decrease
  T-cho (total cholesterol value): significant decrease
  TG (triglyceride value): significant decrease
  serum ALT: significant decrease
  serum AST: significant decrease
[1]; high-fat food mice, glutathione 6 or 60 mg/kg/day in water
  deposition of fat on the liver by high-fat food: suppressed
[1]; [4]
  liver weight: decreased dependently on the concentration
  ratio of liver weight/body weight: decrease of the body weight ratio was also recognized
[2]; Case IDs 10 to 16, 300 mg per day oral
  Effect of the present invention (ALT criterion): not affected
[2]; after treatment, oral glutathione 300 mg per day, one value per subject (Case ID)
  FibroScan (after treatment) CAP: 280 dBe

Reference: patent US20200289605A1, “COMPOSITION FOR IMPROVING OR PREVENTING NONALCOHOLIC FATTY LIVER” (KOHJIN LIFE SCIENCES CO., LTD., priority 2015, published 2020)
